Source: ChEMBL document CHEMBL1201862, “PubChem BioAssay data set” (2004)
Calls of active or inactive are those of the source.

Tests used:
[1] = biological target: T1, Tyrosine-protein phosphatase non-receptor type 7 (Homo sapiens, UniProt P35236); type: functional
T1 sequence (P35236 whole entry): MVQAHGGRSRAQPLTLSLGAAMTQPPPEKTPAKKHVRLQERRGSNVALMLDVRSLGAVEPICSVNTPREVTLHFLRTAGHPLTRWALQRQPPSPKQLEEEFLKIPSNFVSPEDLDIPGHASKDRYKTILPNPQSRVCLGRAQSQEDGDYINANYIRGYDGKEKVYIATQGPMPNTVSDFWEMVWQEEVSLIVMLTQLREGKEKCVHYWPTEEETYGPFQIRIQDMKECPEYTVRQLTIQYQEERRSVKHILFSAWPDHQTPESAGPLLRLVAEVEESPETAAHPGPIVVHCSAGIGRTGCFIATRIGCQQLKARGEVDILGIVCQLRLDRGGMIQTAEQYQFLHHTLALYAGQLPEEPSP

[2] = biological target: T2, Tyrosine-protein phosphatase non-receptor type 22 (Homo sapiens, UniProt Q9Y2R2); type: functional
T2 sequence (Q9Y2R2 whole entry): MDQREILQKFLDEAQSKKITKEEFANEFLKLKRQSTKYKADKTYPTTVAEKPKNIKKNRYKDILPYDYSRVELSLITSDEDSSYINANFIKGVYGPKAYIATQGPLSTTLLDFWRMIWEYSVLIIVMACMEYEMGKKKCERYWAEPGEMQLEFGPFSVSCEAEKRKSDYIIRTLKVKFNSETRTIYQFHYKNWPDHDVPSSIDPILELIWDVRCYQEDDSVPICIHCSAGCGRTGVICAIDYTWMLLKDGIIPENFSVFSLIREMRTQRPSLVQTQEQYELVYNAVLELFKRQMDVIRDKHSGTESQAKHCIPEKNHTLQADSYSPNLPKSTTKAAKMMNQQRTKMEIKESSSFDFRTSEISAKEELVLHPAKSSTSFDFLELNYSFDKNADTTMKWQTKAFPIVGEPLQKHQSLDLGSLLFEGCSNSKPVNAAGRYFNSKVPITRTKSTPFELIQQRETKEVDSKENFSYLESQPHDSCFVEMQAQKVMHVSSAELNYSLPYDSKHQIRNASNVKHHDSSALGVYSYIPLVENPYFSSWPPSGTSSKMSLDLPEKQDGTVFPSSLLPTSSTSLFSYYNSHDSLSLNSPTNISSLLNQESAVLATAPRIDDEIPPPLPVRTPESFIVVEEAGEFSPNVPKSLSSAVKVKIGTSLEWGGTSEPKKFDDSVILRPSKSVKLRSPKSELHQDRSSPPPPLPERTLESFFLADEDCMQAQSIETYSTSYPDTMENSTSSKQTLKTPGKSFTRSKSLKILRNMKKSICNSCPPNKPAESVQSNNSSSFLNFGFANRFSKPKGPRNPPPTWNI

[3] = biological target: T2, Tyrosine-protein phosphatase non-receptor type 22; type: functional; remark: listed apart in the source
Beta-galactosidase = Beta-galactosidase (Escherichia coli, UniProt Q8VNN2); type: functional
Protein skinhead-1 = biological target: T3, Protein skinhead-1 (Caenorhabditis elegans, UniProt P34707); type: functional
T3 sequence (P34707 whole entry): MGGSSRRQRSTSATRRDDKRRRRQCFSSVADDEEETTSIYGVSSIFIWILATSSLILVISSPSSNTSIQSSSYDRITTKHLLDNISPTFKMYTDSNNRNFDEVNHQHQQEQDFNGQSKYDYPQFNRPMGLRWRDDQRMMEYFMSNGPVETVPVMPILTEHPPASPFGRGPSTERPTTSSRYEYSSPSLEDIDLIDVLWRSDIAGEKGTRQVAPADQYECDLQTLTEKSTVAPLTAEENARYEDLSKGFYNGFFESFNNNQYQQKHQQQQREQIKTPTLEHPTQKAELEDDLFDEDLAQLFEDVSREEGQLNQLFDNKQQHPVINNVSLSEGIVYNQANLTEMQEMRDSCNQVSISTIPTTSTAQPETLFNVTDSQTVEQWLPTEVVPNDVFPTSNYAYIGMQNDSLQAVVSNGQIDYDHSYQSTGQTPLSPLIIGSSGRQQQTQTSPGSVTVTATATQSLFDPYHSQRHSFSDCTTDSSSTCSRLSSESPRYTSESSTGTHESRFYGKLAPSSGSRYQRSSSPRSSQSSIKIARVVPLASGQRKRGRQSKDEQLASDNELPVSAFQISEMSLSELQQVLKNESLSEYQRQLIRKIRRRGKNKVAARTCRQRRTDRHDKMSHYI

[4] = biological target: T4, Delta-type opioid receptor (Homo sapiens, UniProt P41143); experiment: HTS Image-Based Screen for Agonists of the DOR Receptor. [Related pubchem assays (depositor defined):AID1777, AID1786, AID2133]; type: functional
[5] = biological target: T5, Short transient receptor potential channel 4 (Mus musculus, UniProt Q9QUQ5); experiment: block of DAMGO-driven TRPC4 calcium entry – cell-based, HEK293 TRPC4/mu-opioid, Fluo-4 calcium, dose response (AID 434942); type: functional;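 also: potency of inhibitors blocking the TRPC4 calcium response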
T5 sequence (Q9QUQ5 whole entry): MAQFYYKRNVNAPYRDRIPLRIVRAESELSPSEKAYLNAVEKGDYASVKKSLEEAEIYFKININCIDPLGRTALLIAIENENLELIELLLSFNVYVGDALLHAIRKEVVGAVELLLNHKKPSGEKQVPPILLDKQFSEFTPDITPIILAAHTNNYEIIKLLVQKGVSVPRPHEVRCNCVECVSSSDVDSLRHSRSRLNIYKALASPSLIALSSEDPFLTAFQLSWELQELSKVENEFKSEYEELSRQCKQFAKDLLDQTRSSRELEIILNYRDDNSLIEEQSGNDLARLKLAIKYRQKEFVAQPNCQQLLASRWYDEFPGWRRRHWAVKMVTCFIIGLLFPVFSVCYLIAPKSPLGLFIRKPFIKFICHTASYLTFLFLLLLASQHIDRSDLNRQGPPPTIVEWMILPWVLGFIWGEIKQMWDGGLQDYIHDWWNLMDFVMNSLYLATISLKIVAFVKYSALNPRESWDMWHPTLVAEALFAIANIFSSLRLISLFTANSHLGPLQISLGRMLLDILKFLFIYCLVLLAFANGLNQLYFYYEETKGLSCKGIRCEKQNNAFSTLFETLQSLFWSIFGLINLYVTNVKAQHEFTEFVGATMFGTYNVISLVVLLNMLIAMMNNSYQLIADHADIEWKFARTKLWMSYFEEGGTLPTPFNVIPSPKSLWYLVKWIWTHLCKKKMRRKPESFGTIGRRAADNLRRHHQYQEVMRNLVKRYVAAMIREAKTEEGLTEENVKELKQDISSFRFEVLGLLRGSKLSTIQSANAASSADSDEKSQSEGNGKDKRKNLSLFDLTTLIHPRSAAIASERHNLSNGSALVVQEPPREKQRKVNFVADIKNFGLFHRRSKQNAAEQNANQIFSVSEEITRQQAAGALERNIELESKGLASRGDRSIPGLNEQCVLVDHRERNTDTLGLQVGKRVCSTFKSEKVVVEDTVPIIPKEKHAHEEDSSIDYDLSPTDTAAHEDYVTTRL

Mu-type opioid receptor = Mu-type opioid receptor (Homo sapiens, UniProt P35372); experiment: HTS Image-Based Screen for Agonists of the MOR Receptor. [Related pubchem assays (depositor defined):AID1777, AID1785, AID1786, AID2133]; type: functional;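 also: imaging of beta-arrestin GFP recruitment into spots after receptor activation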
[6] = biological target: T4, Delta-type opioid receptor; experiment: HTS Image-Based Screen for Antagonists of the DOR Receptor. [Related pubchem assays (depositor defined):AID1777, AID1785, AID1786, AID2133]; type: functional
[7] = biological target: T6, Kappa-type opioid receptor (Homo sapiens, UniProt P41145); type: functional
[8] = biological target: T6, Kappa-type opioid receptor; type: functional; remark: listed apart in the source
[9] = biological target: T7, Calpain-2 catalytic subunit (Sus scrofa, UniProt P43367); experiment: m-calpain protease blockers, concentration series – biochemical, fluorogenic peptide substrate, dose response (AID 1420); type: functional
T7 sequence (P43367 whole entry): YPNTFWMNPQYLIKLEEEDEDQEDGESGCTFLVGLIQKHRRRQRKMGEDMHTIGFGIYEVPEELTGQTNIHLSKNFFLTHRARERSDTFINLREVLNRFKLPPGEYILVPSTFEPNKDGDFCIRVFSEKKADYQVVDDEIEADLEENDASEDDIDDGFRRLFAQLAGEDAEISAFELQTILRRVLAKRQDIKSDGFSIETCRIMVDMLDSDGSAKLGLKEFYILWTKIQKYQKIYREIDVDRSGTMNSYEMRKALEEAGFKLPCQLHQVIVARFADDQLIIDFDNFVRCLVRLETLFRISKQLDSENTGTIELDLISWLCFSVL

[10] = Luminescence Cell-Based Dose Confirmation HTS to Identify Activators of 5'UTR Stem-Loop Driven Alpha-Synuclein mRNA Translation in H4 Neuroglioblastoma Cells. [Related pubchem assays: 1829 (Project Summary), 1814 (Primary HTS)]; type: functional
[11] = biological target: Mitogen-activated protein kinase 10 (Homo sapiens, UniProt P53779); experiment: Dose response biochemical screening assay for inhibitors of c-Jun N-Terminal Kinase 3 (JNK3). [Related pubchem assays: 746 ]
[12] = NIH-3T3 fibroblast cytotoxicity, dose response, cytotoxicity control, cell-based, fluorescence, Alamar Blue, secondary assay (AID 2327); type: functional;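 also: NIH-3T3 mouse fibroblasts cultured with fluconazole at 8 µg/mL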
[13] = fluconazole-exposed Candida albicans growth modulators – fluorescence, retest, confirmation (AID 2467); type: functional, cell-based
[14] = test system: Streptococcus sp. 'group A'; experiment: Streptococcus pyogenes SK(-)GAS viability under kanamycin – luminescence, BacTiterGlo, confirmation, counter-screen for streptokinase expression inhibitor project, dose response (AID 1900); type: functional, organism-based
Streptokinase A = biological target: T8, Streptokinase A (Streptococcus pyogenes serotype M1, UniProt P10520); experiment: viability-normalized secreted streptokinase activity reduction – plasminogen activation absorbance, OD405, dose response (AID 1914); type: functional, Streptococcus pyogenes M1 GAS;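 also: secreted streptokinase activity via plasminogen activation per viability signal from cell pellet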
T8 sequence (P10520 whole entry): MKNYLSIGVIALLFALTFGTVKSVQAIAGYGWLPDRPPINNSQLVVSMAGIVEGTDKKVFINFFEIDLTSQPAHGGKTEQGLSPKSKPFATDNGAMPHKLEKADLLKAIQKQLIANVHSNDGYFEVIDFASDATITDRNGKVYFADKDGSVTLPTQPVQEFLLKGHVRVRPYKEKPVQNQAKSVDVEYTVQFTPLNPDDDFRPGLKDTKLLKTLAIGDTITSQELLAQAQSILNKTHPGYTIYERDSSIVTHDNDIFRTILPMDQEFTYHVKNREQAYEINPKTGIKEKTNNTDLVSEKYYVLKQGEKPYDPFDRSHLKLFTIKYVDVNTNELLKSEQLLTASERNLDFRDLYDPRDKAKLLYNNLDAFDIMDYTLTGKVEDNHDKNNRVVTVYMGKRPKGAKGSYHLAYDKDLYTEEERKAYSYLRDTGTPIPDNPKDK

Streptococcus = experiment: GAS UMAA2166 growth inhibition – luminescence, BacTiterGlo, counter-screen for streptokinase expression inhibitor project, dose response (AID 1915); type: functional, organism-based;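 also: potency for reduction of bacterial viability or growth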
[15] = Luminescence Cell-Based Dose Response HTS to Identify Activators of Luciferase Translation or Activity in H4 […] Cells. [Related pubchem assays: 1829 (Project Summary), 1814 (Primary HTS)]; type: functional
H4 = experiment: Luminescence Cell-Based Dose Response HTS to Identify Activators of 5'UTR Stem-Loop Driven Prion Protein mRNA Translation in H4 Neuroglioblastoma Cells. [Related pubchem assays: 1829 (Project Summary), 1814 (Primary HTS)]; type: functional; conditions: Homo sapiens
[16] = biological target: T9, Dual specificity protein phosphatase 6 (Rattus norvegicus, UniProt Q64346); experiment: inhibition of rat DUSP6 enzyme activity – biochemical, in vitro, primary screen (AID 425)
T9 sequence (Q64346 whole entry): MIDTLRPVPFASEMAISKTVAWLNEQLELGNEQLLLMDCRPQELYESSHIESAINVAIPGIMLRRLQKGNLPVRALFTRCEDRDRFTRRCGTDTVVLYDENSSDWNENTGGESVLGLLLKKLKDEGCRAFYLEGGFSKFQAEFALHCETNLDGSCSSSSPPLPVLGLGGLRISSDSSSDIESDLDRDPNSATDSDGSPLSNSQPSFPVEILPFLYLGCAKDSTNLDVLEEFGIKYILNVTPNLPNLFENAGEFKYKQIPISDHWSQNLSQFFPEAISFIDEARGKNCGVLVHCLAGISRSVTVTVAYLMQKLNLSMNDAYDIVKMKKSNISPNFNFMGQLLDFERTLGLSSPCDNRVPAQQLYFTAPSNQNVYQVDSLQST

T4 sequence (P41143 whole entry): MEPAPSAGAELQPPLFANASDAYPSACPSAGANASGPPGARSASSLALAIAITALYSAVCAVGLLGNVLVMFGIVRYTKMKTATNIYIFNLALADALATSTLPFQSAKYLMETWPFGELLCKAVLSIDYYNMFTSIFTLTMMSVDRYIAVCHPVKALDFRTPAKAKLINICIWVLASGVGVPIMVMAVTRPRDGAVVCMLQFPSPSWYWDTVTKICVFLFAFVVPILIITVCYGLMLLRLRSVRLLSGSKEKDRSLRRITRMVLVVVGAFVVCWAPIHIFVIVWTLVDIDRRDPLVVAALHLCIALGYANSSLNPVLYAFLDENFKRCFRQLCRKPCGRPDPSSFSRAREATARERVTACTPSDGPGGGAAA
T6 sequence (P41145 whole entry): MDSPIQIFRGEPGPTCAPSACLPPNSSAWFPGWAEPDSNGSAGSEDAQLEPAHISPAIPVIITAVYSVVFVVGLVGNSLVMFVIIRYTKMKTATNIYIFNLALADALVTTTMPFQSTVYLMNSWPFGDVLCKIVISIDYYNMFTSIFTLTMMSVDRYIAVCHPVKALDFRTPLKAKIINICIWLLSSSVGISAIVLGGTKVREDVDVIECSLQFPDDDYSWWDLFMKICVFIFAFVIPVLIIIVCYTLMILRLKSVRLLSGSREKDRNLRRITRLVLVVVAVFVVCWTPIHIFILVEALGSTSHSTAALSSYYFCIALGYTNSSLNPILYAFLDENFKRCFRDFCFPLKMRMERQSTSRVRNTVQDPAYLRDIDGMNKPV
Sequence of Beta-galactosidase (Q8VNN2 whole entry): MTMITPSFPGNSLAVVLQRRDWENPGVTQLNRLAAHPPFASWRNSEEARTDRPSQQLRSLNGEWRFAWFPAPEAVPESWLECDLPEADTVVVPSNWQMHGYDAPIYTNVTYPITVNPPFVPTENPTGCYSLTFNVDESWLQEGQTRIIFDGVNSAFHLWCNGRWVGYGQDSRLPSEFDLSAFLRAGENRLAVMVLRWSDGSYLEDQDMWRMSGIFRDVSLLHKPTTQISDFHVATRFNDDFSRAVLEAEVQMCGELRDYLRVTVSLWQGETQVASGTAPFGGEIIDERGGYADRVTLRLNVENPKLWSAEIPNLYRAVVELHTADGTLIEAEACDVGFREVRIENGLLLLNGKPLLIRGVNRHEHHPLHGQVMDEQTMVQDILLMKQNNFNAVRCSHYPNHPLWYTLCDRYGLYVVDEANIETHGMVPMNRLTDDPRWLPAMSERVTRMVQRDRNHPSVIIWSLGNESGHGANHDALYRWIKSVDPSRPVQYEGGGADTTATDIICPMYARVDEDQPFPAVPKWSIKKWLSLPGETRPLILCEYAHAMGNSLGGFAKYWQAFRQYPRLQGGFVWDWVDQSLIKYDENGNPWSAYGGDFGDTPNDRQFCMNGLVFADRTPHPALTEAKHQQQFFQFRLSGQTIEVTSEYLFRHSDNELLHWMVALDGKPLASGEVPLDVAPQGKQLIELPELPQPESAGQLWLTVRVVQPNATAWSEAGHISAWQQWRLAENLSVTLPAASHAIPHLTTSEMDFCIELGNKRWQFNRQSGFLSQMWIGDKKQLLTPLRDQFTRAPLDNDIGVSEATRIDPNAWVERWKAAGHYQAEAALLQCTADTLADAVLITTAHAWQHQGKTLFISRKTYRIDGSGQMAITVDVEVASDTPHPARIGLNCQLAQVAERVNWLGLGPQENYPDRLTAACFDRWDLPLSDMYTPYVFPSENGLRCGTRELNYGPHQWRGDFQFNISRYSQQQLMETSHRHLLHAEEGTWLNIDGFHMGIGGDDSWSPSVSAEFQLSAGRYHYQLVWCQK
Sequence of Mitogen-activated protein kinase 10 (P53779 whole entry): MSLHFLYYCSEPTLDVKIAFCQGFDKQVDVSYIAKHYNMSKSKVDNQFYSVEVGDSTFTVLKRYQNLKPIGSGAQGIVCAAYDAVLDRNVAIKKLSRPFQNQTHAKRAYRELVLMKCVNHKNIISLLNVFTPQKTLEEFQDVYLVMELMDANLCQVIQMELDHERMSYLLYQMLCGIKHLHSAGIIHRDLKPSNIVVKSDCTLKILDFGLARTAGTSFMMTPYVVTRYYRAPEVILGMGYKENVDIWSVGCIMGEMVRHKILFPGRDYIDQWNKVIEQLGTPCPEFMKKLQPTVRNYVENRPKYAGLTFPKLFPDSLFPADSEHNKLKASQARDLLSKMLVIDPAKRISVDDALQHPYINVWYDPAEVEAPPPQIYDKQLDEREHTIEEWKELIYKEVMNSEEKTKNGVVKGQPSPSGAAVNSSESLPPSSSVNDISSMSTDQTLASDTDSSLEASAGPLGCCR
Sequence of Mu-type opioid receptor (P35372 whole entry): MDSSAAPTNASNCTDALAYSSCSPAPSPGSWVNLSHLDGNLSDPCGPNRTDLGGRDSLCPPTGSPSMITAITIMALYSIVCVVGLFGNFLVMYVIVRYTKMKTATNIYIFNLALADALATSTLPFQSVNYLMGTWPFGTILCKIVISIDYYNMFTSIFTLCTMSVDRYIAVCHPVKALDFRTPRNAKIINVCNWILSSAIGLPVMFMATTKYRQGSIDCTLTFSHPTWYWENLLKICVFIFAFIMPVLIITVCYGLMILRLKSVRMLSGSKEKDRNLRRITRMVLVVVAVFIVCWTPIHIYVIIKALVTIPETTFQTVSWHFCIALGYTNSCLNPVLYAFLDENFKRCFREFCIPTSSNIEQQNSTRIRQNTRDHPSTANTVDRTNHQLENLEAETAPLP

Structure (SMILES): CC(C)Cc1nc(S(=O)(=O)c2ccc(Cl)cc2)c(N2CCOCC2)o1
- IC50 [1]: > 79.4 µM (inactive)
- IC50 [2]: > 79.4 µM (inactive)
- IC50 [3]: > 79.4 µM (inactive)

Structure (SMILES): CCOc1cc(CNC2CCCC2)cc(Cl)c1OCc1ccccc1
- EC50 (Beta-galactosidase): > 31.5 µM (inactive)
- IC50 (Protein skinhead-1): < 3.13 µM (active)
- EC50 [4]: > 32 µM (inactive)
- EC50 [5]: 4.22 µM (active)
- EC50 (Mu-type opioid receptor): > 32 µM (inactive)
- IC50 [6]: > 32 µM (inactive)
- IC50 [7]: 2.57 µM
- IC50 [8]: 7.88 µM (active)

Structure (SMILES): CCn1nc(-c2ccccc2)nc2c(=O)n(C)c(=O)nc1-2
- IC50 [9]: 6.11 µM (not active)
- EC50 [10]: > 120 µM (not active)
- IC50 [11]: 36.3 µM (not active)
- EC50 [12]: 1.8 µM (inconclusive)
- IC50 [1]: 8.91 µM (active)
- EC50 [13]: 0.442 µM (active)
- EC50 [14]: 2.54 µM (active)
- IC50 [2]: 13.2 µM (active)
- EC50 (Streptokinase A): > 150 µM (not active)
- EC50 (Streptococcus): 9.43 µM (active)
- EC50 [15]: > 30 µM (not active)
- EC50 (H4): > 120 µM (not active)
- IC50 [3]: 10.4 µM (active)
- IC50 [16]: 0.239 µM (active)
